*1 amine or outer side, *2 acyl side, *3 side chain or, on linkers, in order; H or OH if unused. Where a SMILES comes first, the peptide text is derived from it. Bridges are numbered along the chain shown (N, C = ends). [ ]: non-standard residue; d: D form. The star is where a group is joined. X3 = O=C(O)CN1CCN(CC(=O)O)CCN(CC(=O)NCCCOCCOCCOCCCN*)CCN(CC(=O)O)CC1; DOTA = O=C(O)CN1CCN(CC(=O)O)CCN(CC(=O)*)CCN(CC(=O)O)CC1; Trp(5-Cl) = N[C@@H](Cc1c[nH]c2ccc(Cl)cc12)C(=O)O; X29 = c1cc(CNCCN[*:2])cc(C[*:1])c1; X6 = c1cc(CSCCN[*:2])nc(C[*:1])c1; X7 = c1cc(CSCCN[*:2])cc(C[*:1])c1; Hyp = O=C(O)[C@@H]1C[C@@H](O)CN1; X1 = O=C(CN1CCC(N[*:1])CC1)[*:2]; X15 = c1ncc(C[*:1])cc1CSCCN[*:2]; Suc = O=C(CCC(=O)[*:2])[*:1]; hLeu = CC(C)CC[C@H](N)C(=O)O; αMeS = C[C@](N)(CO)C(=O)O; Aib = CC(C)(N)C(=O)O; Sar = CNCC(=O)O
Molecular target: T1, GIPR (CHO-K1-hGIPR cells) (Homo sapiens, UniProt P48546)
T1 construct: host or cells: CHO-K1
T1 sequence (P48546 22-466): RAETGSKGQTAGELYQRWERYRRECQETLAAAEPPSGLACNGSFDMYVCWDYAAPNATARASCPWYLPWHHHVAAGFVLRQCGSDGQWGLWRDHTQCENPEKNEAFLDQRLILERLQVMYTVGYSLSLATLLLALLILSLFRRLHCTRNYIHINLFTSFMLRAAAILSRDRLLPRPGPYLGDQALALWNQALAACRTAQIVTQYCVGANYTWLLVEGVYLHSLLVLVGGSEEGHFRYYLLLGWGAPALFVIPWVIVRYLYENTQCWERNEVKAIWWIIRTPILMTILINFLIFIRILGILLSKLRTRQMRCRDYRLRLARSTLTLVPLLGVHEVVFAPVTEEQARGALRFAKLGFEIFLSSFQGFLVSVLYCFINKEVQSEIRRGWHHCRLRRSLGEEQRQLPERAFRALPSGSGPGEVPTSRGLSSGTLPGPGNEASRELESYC
Test: FACS binding assay
Conditions: competition with 20 nM GIP-057, 4° C., 1 hour, read-out: pIC50 Category (converted)
Method in brief: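 Steps: detach CHO-K1-hGIPR cells (Accutase); wash in PBS/1% FCS; adjust to 500.000 cells per mL; wash ice-cold; incubate APC-streptavidin 1 μg/mL, 30 min on ice; wash twice; acquire on flow cytometer; fit MFI-concentration data with a four-parameter logistic model.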

IC50, < 10 nM:
CC[C@H](C)[C@@H]1NC(=O)[C@H](CC(C)C)NC(=O)C(C)(C)NC(=O)[C@@H](NC(=O)[C@@H](CC(C)C)NC(=O)[C@H](CCC(=O)O)NC(=O)[C@@H]2CCCN2C(=O)[C@H](Cc2c[nH]c3ccc(Cl)cc23)NC(=O)[C@H](Cc2c[nH]c3ccccc23)NC(=O)[C@H](CC(=O)O)NC(=O)CN2CCC(NC(=O)CN3CCN(CC(=O)O)CCN(CC(=O)O)CCN(CC(=O)O)CC3)CC2)CSCc2cccc(c2)CSCCNC1=O [GIP-089, DOTA-APAc-Asp-Trp-5Clw-Pro-Glu-leu-[Cys(3MeBn)-Aib-Leu-Ile-AET]] ({DOTA}-[X1]DW[Trp(5-Cl)]PE[dL]C[Aib]LI; linker 8-C via X7)
CC[C@H](C)[C@@H]1NC(=O)[C@H](CC(C)C)NC(=O)C(C)(C)NC(=O)[C@@H](NC(=O)[C@@H](CC(C)C)NC(=O)[C@H](CCC(=O)O)NC(=O)[C@@H]2CCCN2C(=O)[C@H](Cc2c[nH]c3ccc(Cl)cc23)NC(=O)[C@H](Cc2c[nH]c3ccccc23)NC(=O)[C@H](CC(=O)O)NC(=O)CCC(=O)NCCCOCCOCCOCCCNC(=O)CN2CCN(CC(=O)O)CCN(CC(=O)O)CCN(CC(=O)O)CC2)CSCc2cccc(n2)CSCCNC1=O [GIP-090, DOTA-Ttds-Asp-Trp-5Clw-Pro-Glu-leu-[Cys(2Lut)-Aib-Leu-Ile-AET]] ({X3-Suc}-DW[Trp(5-Cl)]PE[dL]C[Aib]LI; linker 7-C via X6)
CC[C@H](C)[C@@H]1NC(=O)[C@H](CC(C)C)NC(=O)C(C)(C)NC(=O)[C@@H](NC(=O)[C@@H](CC(C)C)NC(=O)[C@H](CCC(=O)O)NC(=O)[C@@H]2CCCN2C(=O)[C@H](Cc2c[nH]c3ccc(Cl)cc23)NC(=O)[C@H](Cc2c[nH]c3ccccc23)NC(=O)[C@H](CC(=O)O)NC(=O)CCC(=O)NCCCOCCOCCOCCCNC(=O)CN2CCN(CC(=O)O)CCN(CC(=O)O)CCN(CC(=O)O)CC2)CSCc2cncc(c2)CSCCNC1=O [GIP-091, DOTA-Ttds-Asp-Trp-5Clw-Pro-Glu-leu-[Cys(3Lut)-Aib-Leu-Ile-AET]] ({X3-Suc}-DW[Trp(5-Cl)]PE[dL]C[Aib]LI; linker 7-C via X15)
CC[C@H](C)[C@@H]1NC(=O)[C@H](CC(C)C)NC(=O)C(C)(C)NC(=O)[C@@H](NC(=O)[C@@H](CC(C)C)NC(=O)[C@H](CCC(=O)O)NC(=O)[C@@H]2CCCN2C(=O)[C@H](Cc2c[nH]c3ccc(Cl)cc23)NC(=O)[C@H](Cc2c[nH]c3ccccc23)NC(=O)[C@H](CC(=O)O)NC(=O)CCC(=O)NCCCOCCOCCOCCCNC(=O)CN2CCN(CC(=O)O)CCN(CC(=O)O)CCN(CC(=O)O)CC2)CNCc2cccc(c2)CSCCNC1=O [GIP-092, DOTA-Ttds-Asp-Trp-5Clw-Pro-Glu-leu-[Dap(3MeBn)-Aib-Leu-Ile-AET]]
CC[C@H](C)[C@@H]1NC(=O)[C@H](CC(C)C)NC(=O)C(C)(C)NC(=O)[C@@H](NC(=O)[C@@H](CC(C)C)NC(=O)[C@H](CCC(=O)O)NC(=O)[C@@H]2CCCN2C(=O)[C@H](Cc2c[nH]c3ccc(Cl)cc23)NC(=O)[C@H](Cc2c[nH]c3ccccc23)NC(=O)[C@H](CC(=O)O)NC(=O)CCC(=O)NCCCOCCOCCOCCCNC(=O)CN2CCN(CC(=O)O)CCN(CC(=O)O)CCN(CC(=O)O)CC2)CSCc2cccc(c2)CNCCNC1=O [GIP-093, DOTA-Ttds-Asp-Trp-5Clw-Pro-Glu-leu-[Cys(3MeBn)-Aib-Leu-Ile-en]] ({X3-Suc}-DW[Trp(5-Cl)]PE[dL]C[Aib]LI; linker 7-C via X29)
CC[C@H](C)[C@@H]1NC(=O)[C@H](CC(C)C)NC(=O)C(C)(C)NC(=O)[C@@H](NC(=O)[C@@H](CC(C)C)NC(=O)[C@H](CCC(=O)O)NC(=O)[C@@H]2C[C@@H](O)CN2C(=O)[C@H](Cc2c[nH]c3ccc(Cl)cc23)NC(=O)[C@H](Cc2c[nH]c3ccccc23)NC(=O)[C@H](CC(=O)O)NC(=O)CCC(=O)NCCCOCCOCCOCCCNC(=O)CN2CCN(CC(=O)O)CCN(CC(=O)O)CCN(CC(=O)O)CC2)CSCc2cccc(c2)CSCCNC1=O [GIP-094, DOTA-Ttds-Asp-Trp-5Clw-Hyp-Glu-leu-[Cys(3MeBn)-Aib-Leu-Ile-AET]] ({X3-Suc}-DW[Trp(5-Cl)][Hyp]E[dL]C[Aib]LI; linker 7-C via X7)
CC[C@H](C)[C@@H]1NC(=O)[C@H](CC(C)C)NC(=O)C(C)(C)NC(=O)[C@@H](NC(=O)[C@@H](CC(C)C)NC(=O)[C@H](CCC(=O)O)NC(=O)[C@@H]2CCCN2C(=O)[C@H](Cc2c[nH]c3ccc(Cl)cc23)NC(=O)[C@H](Cc2c[nH]c3ccccc23)NC(=O)[C@H](CC(=O)O)NC(=O)CCC(=O)NCCCOCCOCCOCCCNC(=O)CN2CCN(CC(=O)O)CCN(CC(=O)O)CCN(CC(=O)O)CC2)CNCc2cccc(c2)C[S+]([O-])CCNC1=O (stereo partly drawn) [GIP-098, DOTA-Ttds-Asp-Trp-5Clw-Pro-Glu-leu-[Dap(3MeBn)-Aib-Leu-Ile-AETO]]
CC[C@H](C)[C@@H]1NC(=O)[C@H](CCC(C)C)NC(=O)C(C)(C)NC(=O)[C@@H](NC(=O)[C@@H](CC(C)C)NC(=O)[C@H](CCC(=O)O)NC(=O)[C@@H]2CCCN2C(=O)[C@H](Cc2c[nH]c3ccc(Cl)cc23)NC(=O)[C@H](Cc2c[nH]c3ccccc23)NC(=O)[C@H](CC(=O)O)NC(=O)CCC(=O)NCCCOCCOCCOCCCNC(=O)CN2CCN(CC(=O)O)CCN(CC(=O)O)CCN(CC(=O)O)CC2)CSCc2cccc(c2)CSCCNC1=O [GIP-099, DOTA-Ttds-Asp-Trp-5Clw-Pro-Glu-leu-[Cys(3MeBn)-Aib-Hle-Ile-AET]] ({X3-Suc}-DW[Trp(5-Cl)]PE[dL]C[Aib][hLeu]I; linker 7-C via X7)
CC[C@H](C)[C@@H]1NC(=O)[C@H](CC(C)C)NC(=O)C(C)(C)NC(=O)[C@@H](NC(=O)[C@@H](CC(C)C)NC(=O)[C@H](CCC(=O)O)NC(=O)CN(C)C(=O)[C@H](Cc2c[nH]c3ccc(Cl)cc23)NC(=O)[C@H](Cc2c[nH]c3ccccc23)NC(=O)[C@H](CC(=O)O)NC(=O)CCC(=O)NCCCOCCOCCOCCCNC(=O)CN2CCN(CC(=O)O)CCN(CC(=O)O)CCN(CC(=O)O)CC2)CSCc2cccc(c2)CSCCNC1=O [GIP-100, DOTA-Ttds-Asp-Trp-5Clw-Nmg-Glu-leu-[Cys(3MeBn)-Aib-Leu-Ile-AET]] ({X3-Suc}-DW[Trp(5-Cl)][Sar]E[dL]C[Aib]LI; linker 7-C via X7)
CC[C@H](C)[C@@H]1NC(=O)[C@H](CC(C)C)NC(=O)[C@](C)(CO)NC(=O)[C@@H](NC(=O)[C@@H](CC(C)C)NC(=O)[C@H](CCC(=O)O)NC(=O)[C@@H]2CCCN2C(=O)[C@H](Cc2c[nH]c3ccc(Cl)cc23)NC(=O)[C@H](Cc2c[nH]c3ccccc23)NC(=O)[C@H](CC(=O)O)NC(=O)CCC(=O)NCCCOCCOCCOCCCNC(=O)CN2CCN(CC(=O)O)CCN(CC(=O)O)CCN(CC(=O)O)CC2)CSCc2cccc(c2)CSCCNC1=O [GIP-101, DOTA-Ttds-Asp-Trp-5Clw-Pro-Glu-leu-[Cys(3MeBn)-Ams-Leu-Ile-AET]] ({X3-Suc}-DW[Trp(5-Cl)]PE[dL]C[αMeS]LI; linker 7-C via X7)

Reference: patent US20250296971A1, “GASTRIC INHIBITORY PEPTIDE RECEPTOR LIGANDS” (priority 2021, published 2025)
